Values of other authors, collected in patent US20150196506A1, “CHEWING GUM FORMULATIONS COMPRISING DAPOXETINE AND TADALAFIL” (Sanovell Ilac Sanayi Ve Ticaret Anonim Sirketi, priority 2012, published 2015).

Key:
[1] = similarly poorly dissolved in gastric juice
[2] = following oral administration

| solubility in water [1] | binding to plasma proteins [2] | Structure (SMILES) |
| --- | --- | --- |
| poorly soluble in water | – | CN1CC(=O)N2[C@H](c3ccc4c(c3)OCO4)c3[nH]c4ccccc4c3C[C@@H]2C1=O [Tadalafil, (6R-trans)-6-(1,3-benzodioxol-5-yl)-2,3,6,7,12,12a-hexahydro-2-methyl-pyrazino [1′,2′:1,6] pyrido[3,4-b]indole-1,4-dione] |
| – | almost completely | CN(C)[C@@H](CCOc1cccc2ccccc12)c1ccccc1 [dapoxetine] |
